Results published in patent publication US5506207A, “GNRH antagonists XIII” (The Salk Institute for Biological Studies, priority 1994, dated 1996).
Entries after “also recorded” stand apart in the source; their conditions may differ. Square brackets hold non-standard residues; d marks the D form. Peptide text beside a SMILES is read from it. * marks the point of attachment. dPhe(4-NH2) = Nc1ccc(C[C@@H](N)C(=O)O)cc1; dPhe(4-Cl) = N[C@H](Cc1ccc(Cl)cc1)C(=O)O; Phe(4-NH2) = Nc1ccc(C[C@H](N)C(=O)O)cc1; d2Nal = N[C@H](Cc1ccc2ccccc2c1)C(=O)O; Lys(iPr) = CC(C)NCCCC[C@H](N)C(=O)O; d3Pal = N[C@H](Cc1cccnc1)C(=O)O; X1 = Nc1n[nH]c(NCC(=O)*)n1

Legend:
[1] = solubility in aqueous buffers; type: physicochemical; settings: pH from about 5 to about 7
[2] = tested on: mature female Sprague-Dawley rats; assay: examination of treated rats for tolerance and gelling at the point of injection; type: in vivo, rat; settings: rats injected with peptide in bacteriostatic water

For `CC(=O)N[C@H](Cc1ccc2ccccc2c1)C(=O)N[C@H](Cc1ccc(Cl)cc1)C(=O)N[C@H](Cc1cccnc1)C(=O)N[C@@H](CO)C(=O)N[C@@H](Cc1ccc(NC(=O)CNc2nc(N)n[nH]2)cc1)C(=O)N[C@H](Cc1ccc(NC(=O)CNc2nc(N)n[nH]2)cc1)C(=O)N[C@@H](CC(C)C)C(=O)N[C@@H](CCCCNC(C)C)C(=O)N1CCC[C@H]1C(=O)N[C@H](C)C(N)=O` [Peptide No. 1, [Ac-β-D-2NAL^1, (4Cl)D-Phe^2, D-3PAL^3, Aph(Gly)(atz)^5, D-Aph(Gly)(atz)^6, ILys^8, D-Ala^10]-GnRH] (Ac-[d2Nal][dPhe(4-Cl)][d3Pal]S[Phe(4-NH2)](X1)[dPhe(4-NH2)](X1)L[Lys(iPr)]P[dA]-NH2), the “solubility in aqueous buffers” value [1] was “solubility in aqueous buffers at a pH of from about 5 to about 7” and the “tolerance and gelling at the point of injection” value [2] was “very well tolerated with no significant gelling at the point of injection being detectable; also recorded: resistance to in vivo gelling”.
